Experimental data: US20120252853A1, “Positive allosteric modulators of nicotinic acetylcholine receptor” (H. Lundbeck A/S, priority 2011, published 2012)

The compounds below were run against human α7 receptor (Homo sapiens, UniProt P36544) (assay: α7 NNR flux assay (FDSS Ca assay)). Conditions: positive allosteric modulation; rat GH4C1 cell line stably expressing human α7; acetylcholine 20 μM; % modulation relative to PNU-120596 set to 100%.
Assay type: cell-based
Procedure: In this version of the assay, the human α7 receptor is stably expressed in the rat GH4C1 cell line. The assay was used to identify positive allosteric modulators (PAMs) of the α7 receptor. Activation of the channel was measured by loading cells with the calcium-sensitive fluorescent dye Calcium-4 (Assay kit from Molecular Devices), and then measuring real-time changes in fluorescence upon treatment with test compounds.
The cell line ChanClone GH4C1-nAChRalpha7 from Genionics was seeded from frozen stock in 384-well plates in culture media 2-3 days before experiment to form an approximately 80% confluent layer on the day of experiment.
The cell culture were split into “22.5 cm×22.5 cm”-plates with approximately 100×10^3 cells/cm^2. After four days incubation in a humidified incubator at 37° C. and 5% CO2, it had grown to an 80-90% confluent layer, and the cells were harvested.
Two or three days before the experiment the cells were seeded in 384 well plates from Greiner bio-one (781946, CELLCOAT, Poly-D-Lysine, black, μClear).
The cells were seeded in 384 well plates with 30 μL/well (30000 cells/well) while stirring the cell suspension or otherwise preventing the cells from precipitating. The plates were incubated at room temperature for 30-45 minutes. The plates were placed in incubator for two days (37° C. and 5% CO2).
The loading buffer was 5% v/v Calcium-4 Kit and 2.5 mM Probenecid in assay buffer.
Culture media were removed from the cell plates and 20 μL loading buffer was added in each well. The cell plates were placed in trays and incubated 90 minutes in the incubator (37° C.). Thereafter the plates were incubated 30 minutes at room temperature, still protected from light. Now the cell plates were ready to run in the Functional Drug Screening System (FDSS) The assay buffer was HBSS with 20 mM HEPES, pH 7.4 and 3 mM CaCl2.
200 nL 10 mM compound solution in DMSO was diluted in 50 μL assay buffer. The final test concentrations in the cell plates were 20-10-5-2.5-1.25-0.625-0.312-0.156-0.078-0.039 μM. Assay buffer and 3 μM PNU-120596 were used for control:
The agonist acetylcholine was added to a final concentration of 20 μM (˜EC100). In the FDSS7000 the Ex480-Em540 was measured with 1 second intervals. The baseline was made of 5 frames before addition of test compounds, and 95 frames more were made before addition of acetylcholine. The measurement stopped 30 frames after the 2nd addition. Raw data for each well were collected as “the maximum fluorescence count” in the interval 100-131 seconds and as “the average fluorescence count” in the interval 96-100 seconds. The positive allosteric modulation in the 2nd addition was the enhancement of agonist response with test compound compared to agonist alone.
Results were calculated as % modulation of test compound compared to the reference PNU-120596 set to 100%.

Chain of human α7 receptor (P36544 23-502): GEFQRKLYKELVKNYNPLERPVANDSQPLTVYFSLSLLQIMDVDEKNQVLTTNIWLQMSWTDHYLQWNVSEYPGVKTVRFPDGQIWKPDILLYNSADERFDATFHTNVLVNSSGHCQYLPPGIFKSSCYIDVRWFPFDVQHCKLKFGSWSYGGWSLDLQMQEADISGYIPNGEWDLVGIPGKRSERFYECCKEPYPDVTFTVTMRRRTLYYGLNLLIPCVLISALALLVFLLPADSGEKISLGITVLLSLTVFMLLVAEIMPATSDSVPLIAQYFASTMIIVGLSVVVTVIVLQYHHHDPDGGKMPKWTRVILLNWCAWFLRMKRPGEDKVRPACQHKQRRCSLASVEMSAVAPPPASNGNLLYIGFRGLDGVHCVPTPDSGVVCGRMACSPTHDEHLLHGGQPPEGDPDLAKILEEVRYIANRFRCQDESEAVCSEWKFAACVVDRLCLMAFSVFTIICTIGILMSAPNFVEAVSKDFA

Row | EC50 [µM] | SMILES
1 | 11 | Cc1cc2cc(C(C)NC(=O)c3oncc3C)ccc2[nH]1 (racemic) [Compound 16, 4-methyl-N-[1-(2-methyl-1H-indol-5-yl)ethyl]isoxazole-5-carboxamide]
2 | 6.7 | COc1cc(C(=O)NC(C)c2ccc3[nH]c(C)cc3c2)on1 (racemic) [Compound 18, 3-methoxy-N-[1-(2-methyl-1H-indol-5-yl)ethyl]isoxazole-5-carboxamide]
3 | 2.63 | Cc1cc(C(=O)NC(C)c2ccc3[nH]c(C)cc3c2)on1 (racemic) [Compound 33, 3-methyl-N-[1-(2-methyl-1H-indol-5-yl)ethyl]isoxazole-5-carboxamide]
4 | 5.2 | Cc1cc(C(=O)NC(C)c2ccc3[nH]c(C(F)(F)F)cc3c2)on1 (single isomer, unassigned) [Compound 97, 3-methyl-N-[1-[2-(trifluoromethyl)-1H-indol-5-yl]ethyl]isoxazole-5-carboxamide]
5 | 9.8 | Cc1cc2cc(CNC(=O)c3sc(C)nc3C)ccc2[nH]1 [Compound 2, 2,4-dimethyl-N-[(2-methyl-1H-indol-5-311)methyl]thiazole-5-carboxamide]
6 | 0.13 | Cc1cc2cc(CNC(=O)c3ccc(Cl)s3)ccc2[nH]1 [Compound 3, 5-Chloro-thiophene-2-carboxylic acid (2-methyl-1H-indol-5-ylmethyl)-amide]
7 | 2.9 | Cc1cc2cc(CNC(=O)c3sccc3Cl)ccc2[nH]1 [Compound 4, 3-chloro-N-[(2-methyl-1H-indol-5-yl)methyl]thiophene-2-carboxamide]
8 | 4.4 | Cc1cc2cc(CNC(=O)c3cscn3)ccc2[nH]1 [Compound 5, N-[(2-methyl-1H-indol-5-yl)methyl]thiazole-4-carboxamide]
9 | 0.52 | Cc1cc2cc(CNC(=O)c3ccsc3)ccc2[nH]1 [Compound 6, N-[(2-methyl-1H-indol-5-yl)methyl]thiophene-3-carboxamide]
10 | 1.4 | Cc1cc2cc(CNC(=O)c3cc(C)oc3C)ccc2[nH]1 [Compound 7, 2,5-dimethyl-N-[(2-methyl-1H-indol-5-yl)methy]furan-3-carboxamide]
11 | 3.2 | Cc1cc2cc(CNC(=O)c3cc(C)on3)ccc2[nH]1 [Compound 8, 5-methyl-N-[(2-methyl-1H-indol-5-yl)methyl]isoxazole-3-carboxamide]
12 | 1.8 | Cc1cc2cc(CNC(=O)c3sccc3C)ccc2[nH]1 [Compound 9, 3-methyl-N-[(2-methyl-1H-indol-5-yl)methyl]thiophene-2-carboxamide]
13 | 4 | Cc1cc2cc(CNC(=O)c3ccco3)ccc2[nH]1 [Compound 10, N-[(2-methyl-1H-indol-5-yl)methyl]furan-2-carboxamide]
14 | 2.4 | Cc1cc2cc(CNC(=O)c3ccoc3)ccc2[nH]1 [Compound 11, N-[(2-methyl-1H-indol-5-yl)methyl]furan-3-carboxamide]
15 | 9.1 | Cc1cc2cc(CNC(=O)c3cc(C)n(C)n3)ccc2[nH]1 [Compound 12, 1,5-dimethyl-N-[(2-methyl-1H-indol-5-yl)methyl]pyrazole-3-carboxamide]
16 | 0.53 | Cc1cc2cc(CNC(=O)c3cccs3)ccc2[nH]1 [Compound 13, N-[(2-methyl-1H-indol-5-yl)methyl]thiophene-2-carboxamide]
17 | 7.4 | Cc1cc2cc(CNC(=O)c3ccc[nH]3)ccc2[nH]1 [Compound 14, N-[(2-methyl-1H-indol-5-yl)methyl]-1H-pyrrole-2-carboxamide]
18 | 9.6 | Cc1cc2cc(CNC(=O)c3oncc3C)ccc2[nH]1 [Compound 15, 4-methyl-N-[(2-methyl-1H-indol-5-yl)methyl]isoxazole-5-carboxamide]

Row | EC50 [µM] | SMILES
19 | 11 | Cc1cc(C(=O)NCc2ccc3[nH]cc(C)c3c2)on1 [Compound 17, 3-methyl-N-[(3-methyl-1H-indol-5-34)methyl]isoxazole-5-carboxamide]
20 | 4.6 | COc1cc(C(=O)NCc2ccc3[nH]c(C)cc3c2)on1 [Compound 19, 3-methoxy-N-[(2-methyl-1H-indol-5-yl)methyl]isoxazole-5-carboxamide]
21 | 3.3 | Cc1cc2cc(CNC(=O)c3nccs3)ccc2[nH]1 [Compound 20, N-[(2-methyl-1H-indol-5-yl)methyl]thiazole-2-carboxamide]
22 | 7.2 | Cc1cc2cc(CNC(=O)c3ocnc3C)ccc2[nH]1 [Compound 22, 4-methyl-N-[(2-methyl-1H-indol-5-yl)methyl]oxazole-5-carboxamide]
23 | 7.1 | Cc1cc(C(=O)NCc2cc(C)c3[nH]ccc3c2)on1 [Compound 23, 3-methyl-N-[(7-methyl-1H-indol-5-yl)methyl]isoxazole-5-carboxamide]
24 | 4.7 | Cc1cc2cc(CNC(=O)c3csc(C)n3)ccc2[nH]1 [Compound 25, 2-methyl-N-[(2-methyl-1H-indol-5-yl)methyl]thiazole-4-carboxamide]
25 | 7.37 | Cc1cc2cc(CNC(=O)c3ccno3)ccc2[nH]1 [Compound 26, N-[(2-methyl-1H-indol-5-yl)methyl]isoxazole-5-carboxamide]
26 | 0.44 | Cc1cc2cc(CNC(=O)c3c(C)noc3C)ccc2[nH]1 [Compound 27, 3,5-dimethyl-N-[(2-methyl-1H-indol-5-yl)methyl]isoxazole-4-carboxamide]
27 | 11 | Cc1cc2cc(CNC(=O)c3cc(=O)n(C)[nH]3)ccc2[nH]1 [Compound 32, 2-methyl-N-[(2-methyl-1H-indol-5-yl)methyl]-3-oxo-1H-pyrazole-5-carboxamide]
28 | 9.8 | Cc1cc2cc(CNC(=O)c3ccn(C)c3)ccc2[nH]1 [Compound 37, 1-methyl-N-[(2-methyl-1H-indol-5-yl)methyl]pyrrole-3-carboxamide]
29 | 5.9 | Cc1cc(C(=O)NC(C)c2ccc3[nH]ccc3c2)on1 (centres unmarked) [Compound 38, N-[1-(1H-indol-5-yl)ethyl]-3-methyl-isoxazole-5-carboxamide]
30 | 9.1 | Cc1cc(C(=O)NCc2cc3cc[nH]c3cc2C)on1 [Compound 39, 3-methyl-N-[(6-methyl-1H-indol-5-yl)methyl]isoxazole-5-carboxamide]
31 | 7.7 | Cc1cc(C(=O)NCc2ccc3[nH]c(C)c(C)c3c2)on1 [Compound 41, N-[(2,3-dimethyl-1H-indol-5-yl)methyl]-3-methyl-isoxazole-5-carboxamide]
32 | 5.6 | Cc1cc2cc([C@@H](C)NC(=O)c3cnc(C)s3)ccc2[nH]1 [Compound 42, 2-methyl-N-[(1R)-1-(2-methyl-1H-indol-5-yl)ethyl]thiazole-5-carboxamide]
33 | 2.2 | CCn1cc(C(=O)N[C@H](C)c2ccc3[nH]c(C)cc3c2)cn1 [Compound 43, 1-ethyl-N-[(1R)-1-(2-methyl-1H-indol-5-yl)ethyl]pyrazole-4-carboxamide]
34 | 6.1 | Cc1cc2cc([C@@H](C)NC(=O)c3cnn(C)c3)ccc2[nH]1 [Compound 44, 1-methyl-N-[(1R)-1-(2-methyl-1H-indol-5-yl)ethyl]pyrazole-4-carboxamide]
35 | 1.5 | Cc1cc(C(=O)N[C@@H](c2ccc3[nH]c(C)cc3c2)C(F)(F)F)on1 [Compound 45, 3-methyl-N-[(1S)-2,2,2-trifluoro-1-(2-methyl-1H-indol-5-yl)ethyl]isoxazole-5-carboxamide]
